According to paper PMC9696374, “Antiandrogenic Effects of a Polyphenol in Carex kobomugi through Inhibition of Androgen Synthetic Pathway and Downregulation of Androgen Receptor in Prostate Cancer Cell Lines” (International Journal of Molecular Sciences, 2022):

Biological target: T1, dehydrogenase/reductase SDR family member 11 (DHRS11) (Homo sapiens, UniProt Q6UWP2)
T1 construct: Homogenous recombinant DHRS11
T1 sequence (Q6UWP2 31-260): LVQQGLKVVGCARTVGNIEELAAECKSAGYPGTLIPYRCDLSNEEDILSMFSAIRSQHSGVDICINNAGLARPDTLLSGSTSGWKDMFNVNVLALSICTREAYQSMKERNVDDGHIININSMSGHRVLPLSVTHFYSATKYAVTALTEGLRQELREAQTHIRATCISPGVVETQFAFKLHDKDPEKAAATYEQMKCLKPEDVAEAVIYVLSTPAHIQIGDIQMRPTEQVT
Assay: reductase activity of recombinant DHRS11, NADPH absorbance at […] nm, isatin substrate
Assay type: biochemical

SMILES: Cc1c(O)cc(O)c2c(=O)cc(/C=C/c3ccc(O)cc3)oc12 [VI, 5,7-dihydroxy-8-methyl-2-[2-(4-hydroxyphenyl)ethenyl]-4H-1-benzopyran-4-one]
- IC50: 350 ± 30 nM
